The record followed here is US9376705B2, “Method for detecting susceptibility of microorganisms to chemical agents” (Idmic SA, priority 2012, dated 2016).

SMILES strings stand for the structures.

Holding throughout (assay type): cell-based
For test [1], the system named is Citrobacter ssp strain susceptible to ampicillin and ceftriaxone. Briefly: Susceptibility testing by MALDI-TOF mass spectra of culture supernatant, Citrobacter ssp strain susceptible to ampicillin and ceftriaxone. The conditions noted are these: treatment with 8 mg/L, FIG. 4. Here is the method:
(§1) In a first process step 10, approximately ten colonies of microorganisms of the bacterial type Enterobacteriaceae are added to 1 mL of a liquid Müller-Hinton broth nutrient medium. The turbidity of the microorganisms in the liquid nutrient medium is 0.5 on McFarland standards, corresponding to approximately 1.5×10^8 colony forming units/mL.
(§2) In a second process step 20, 5 μL of 5-25 mM, especially 25 mM of a water-soluble salt of malic acid or ascorbic acid, for example sodium malate as an enhancer for Enterobacteriaceae family bacteria is added into the liquid nutrient medium. The enhancer may also be added into the liquid nutrient medium in solid form.
(§3) In a third process step 30, the microorganisms in the nutrient medium are pre-incubated at 37° C. for 30 minutes.
(§4) In a fourth process step 40, a quantity of a chemical agent or antibiotic equal to the threshold level of the given microorganism according to the Clinical and Laboratory Standards Institute is added to the microorganisms in the liquid nutrient medium.
(§5) In a fifth process step 50, the microorganisms in the nutrient medium are incubated at 37° C. for 60 minutes.
(§6) In a sixth process step 60, the microorganisms are removed from the nutrient medium by centrifugation at 10′000 g or 15′000 g for 5 minutes at room temperature. The remaining supernatant is collected in a new experimental tube. […]

Test [2] concerns Escherichia coli strain susceptible to ampicillin and ceftriaxone. In words: Susceptibility testing by MALDI-TOF mass spectra of culture supernatant, Escherichia coli strain susceptible to ampicillin and ceftriaxone. To be noted: treatment with 8 mg/L; susceptible E. coli strain; FIG. 2. How it is done: as §1, §2, §3, §4, §5, §6
In test [3] the test system is Escherichia coli strain resistant to ampicillin and ceftriaxone. In words: Susceptibility testing by MALDI-TOF mass spectra of culture supernatant, Escherichia coli strain resistant to ampicillin and ceftriaxone. The conditions noted are these: treatment with 8 mg/L; resistant E. coli strain; FIG. 3. How it is done: as §1, §2, §3, §4, §5, §6

For the compound `CO/N=C(\C(=O)N[C@@H]1C(=O)N2C(C(=O)O)=C(CSc3nc(=O)c(=O)[nH]n3C)CS[C@H]12)c1csc(N)n1` [ceftriaxone], the “effect on bacteria as seen in mass spectrum of supernatant (protein/peptide signals)” value is listed as “has been destroyed” in test [1], “has been destroyed” in test [2] and “no further significant signal” in test [3].

As for `CC1(C)S[C@@H]2[C@H](NC(=O)[C@H](N)c3ccccc3)C(=O)N2[C@H]1C(=O)O` [ampicillin], the “effect on bacteria as seen in mass spectrum of supernatant (protein/peptide signals)” value is “has been destroyed” in test [1], “has been destroyed” in test [2] and “no further significant signal” in test [3].
